Reference: US9573975B2, “Melanoma antigen peptide and uses thereof” (INSERM (INSTITUT NATIONAL DE LA SANTE ET DE LA RECHERCHE …, priority 2012, dated 2017)

How the values were obtained:
Assay type in all cases: cell-based, human
[1] = system: CD4 T cells in PBMC from melanoma patients; experiment: PBMC from melanoma patients stimulated with MELOE-1, restimulated with peptides, CD4/IFN-γ and CD4/IL4 staining; settings: for Th1 responses, share of tested microcultures: of 576 tested microcultures, melanoma patients; for melanoma patients with CD4 specific responses (mainly Th1, IFN-g production) / melanoma patients with Th2 responses: responding/tested patients; for melanoma patients with Th2 responses: IL4
Protocol: FIG. 2: (A) Percentages of cytokine producing CD4 T cells among positive microcultures. Fourteen days after PBMC stimulation with MELOE-1 whole polypeptide (2-46), microcultures were re-stimulated with each indicated peptide during 5 hours. IFN-γ (left panel) and IL4 (right panel) production was then assessed by a triple labeling IFN-γ-IL4-CD4. Results were analyzed with a non-parametric test (Kruskal-Wallis) followed by a Dunns post-test. (B) Frequency of microcultures containing CD4 T cells specific for MELOE-1 peptides (assessed by IFN-γ or IL4 intracellular staining after re-stimulation with the 3 indicated peptides). 576 microcultures (from 10 melanoma patients) were analyzed by a contingency table followed by a Fisher exact test.
PBMC from melanoma patients were stimulated with 10 μM of MELOE-1. After 14 days, the presence of CD4 T cells specific for the different regions of MELOE-1 was assessed by restimulating cells with MELOE-12-21, MELOE-111-30 and MELOE-122-46 peptides, followed by CD4/IFN-γ double staining for the detection of Th1 responses, and by CD4/IL4 double staining for Th2 responses. Between brackets is indicated the mean % of cytokine producing CD4 T cells, in positive microcultures.
PBMC from healthy donors or melanoma patients (2·10^5 cells/well) were cultured for 14 days with 10 μM of MELOE-1 whole antigen (46 amino acids) in RPMI medium supplemented with 8% HS, 50 IU/ml of rIL-2 (Chiron, France) and L-Glutamin, in 96-well multiplates. Micro cultures were then restimulated individually with each overlapping peptide (MELOE-12-21, MELOE-111-30, MELOE-118-37, MELOE-126-46 or MELOE-122-46 for melanoma patients) in the presence of 10 μg/mL brefeldin A for 5 hours and the percentage of CD4^+ specific T cells was assessed by TNF-α, IFN-γ or IL-4 intracellular staining A negative control without peptide was included in all experiments.
(§1) Lymphocytes were stimulated for 5 hours in the presence of brefeldin A (10 μg/mL) either with peptide alone (10 μM) in an autopresentation assay or with B-EBV or HLA-class II expressing melanoma cells pulsed 2 hours with the cognate peptide, at a ratio 1:2. In some experiments, blocking mAb against HLA-DP (clone B7.21 from Dr Charron, UMR940, Paris), HLA-DQ (clone SPVL3, Beckman Coulter) or HLA-DR (clone L243, BD Biosciences) were added at a concentration of 12.5 μg/ml. Cells were then stained with APC-conjugated anti-CD4 mAb, fixed with 4% paraformaldehyde, labeled with PE-conjugated anti-cytokine mAb and analyzed by flow cytometry.
In order to confirm the immunogenicity of each MELOE-1 regions in melanoma patients, we stimulated melanoma patients PBMC with the MELOE-1 whole protein, and tested the reactivity of stimulated lymphocytes towards the three most immunogenic regions: 2-21, 11-30, and 22-46. For this study, instead of challenging microcultures with the 18-37 peptide, that appeared poorly immunogenic, we extended the C-terminus region from 26-46 to 22-46, in order to also detect responses to our previously described HLA-DR11-restricted epitope (24-37). […] We tested the induction of CD4 specific responses from MELOE-1 stimulated PBMC of 10 melanoma patients. We documented CD4 responses specific for the central region of MELOE-1 (11-30) for 7/9 patients, whereas responses specific for MELOE-12-21 and MELOE-122-46 were respectively detected in 4/9 and 5/9 patients (Table III). These responses were mainly Th1 responses (IFN-g production) while less frequent Th2 responses specific for the three regions of MELOE-1 were detected in 3/9 patients for MELOE-12-21, 2/9 patients for MELOE-111-30 and 5/9 patients for MELOE-122-46 (Table III). […] Concerning Th2 responses, much less frequent, the C-term region appeared to induce more frequently the growth of IL-4 producing CD4 T cells than the two other regions (FIG. 2A). […]

[2] = system: MELOE-12-21 specific CD4 T cell clone (9C12-DQβ1*0202); experiment: Peptide stimulation of CD4 T cell clone 9C12, intracellular cytokine staining; settings: cognate peptide 10 μM, 5 hours
Protocol: (§2) FIG. 5: Minimal peptides recognized by MELOE-1 specific CD4 T cell clones. MELOE-1 specific CD4 T cell clones were incubated with various concentrations of the indicated peptides during 5 hours in presence of Brefeldin A. TNF-α production was assessed by intracellular labeling with an anti-TNF-α specific antibody. The core peptide sequence is indicated in bold on each figure panel, and black circles illustrate the best fitting peptide.
as §1
(§3) We also documented the T helper profile of each T cell clone, by stimulating the CD4 T cell clones with the cognate peptide, and analyzing cytokine production. All the clones expressed Th1 cytokines (TNFα, IFNγ, IL2 and GM-CSF). On the contrary, these clones differ in their expression of Th2 cytokines. Indeed, the two DQ2 restricted T cell clones (9C12 and 4E2) and the DR1 restricted one (5F9) also strongly express two Th2 cytokines (IL4, and IL13), whereas the DR11-restricted T cell clone only weakly expressed IL4 (Table IV). None of the CD4 T cell expresses IL10 or IL5 at a significant level.
(§4) Three shorter peptides were better recognized by the DQ2-restricted 9C12 T cell clone, the shortest one being MELOE-17-19 (13-mer), recognized with an EC50 of 100 nM. The deletion of the two amino acids in C-term strongly reduces T cell clone recognition. […] Nonetheless all of these clones recognized a series of shortened peptides, thus we cannot formally assess that the shortest ones will be the exact peptides naturally presented on class II molecules.

[3] = system: MELOE-111-30 specific CD4 T cell clone (1A5-DRβ1*1101); experiment: Peptide stimulation of CD4 T cell clone 1A5, intracellular cytokine staining; settings: cognate peptide 10 μM, 5 hours
Protocol: as §2, §1, §3, §4

[4] = system: MELOE-111-30 specific CD4 T cell clone (5F9-DRβ1*0101); experiment: Peptide stimulation of CD4 T cell clone 5F9, intracellular cytokine staining; settings: clone 5F9, cognate peptide 10 μM, 5 hours
Protocol: as §2, §1, §3, §4

SCVGYPDEATSREQFLPSEG (SCVGYPDEATSREQFLPSEC) [MELOE-12-21]
mean % of cytokine producing CD4 T cells, in positive microcultures (IFN-γ, Th1) ([1]; Pt ≠ 1): (0.7%)
mean % of cytokine producing CD4 T cells, in positive microcultures (IFN-γ, Th1) ([1]; Pt ≠ 2): (0.8% ± 0.2)
mean % of cytokine producing CD4 T cells, in positive microcultures (IFN-γ, Th1) ([1]; Pt ≠ 3): (1.7% ± 2.9)
mean % of cytokine producing CD4 T cells, in positive microcultures (IL4, Th2) ([1]; Pt ≠ 4): (0.7%)
mean % of cytokine producing CD4 T cells, in positive microcultures (IFN-γ, Th1) ([1]; Pt ≠ 5): (0.6%)
mean % of cytokine producing CD4 T cells, in positive microcultures (IL4, Th2) ([1]; Pt ≠ 5): (0.7% ± 0.1)
mean % of cytokine producing CD4 T cells, in positive microcultures (IL4, Th2) ([1]; Pt ≠ 9): (0.6%)
Th1 responses, share of tested microcultures [1]: 3.3%
melanoma patients with CD4 specific responses (mainly Th1, IFN-g production) [1]: 4/9
melanoma patients with Th2 responses [1]: 3/9
Cytokine profile: GM-CSF [2]: GM-CSF ^high
Cytokine profile: IFN [2]: IFN ^high
Cytokine profile: IL2 [2]: IL2 ^high
Cytokine profile: IL4 [2]: IL4 ^high
Cytokine profile: IL5 [2]: IL5 ^low
Cytokine profile: IL10 [2]: IL10 ^neg
Cytokine profile: IL13 [2]: IL13 ^high
Cytokine profile: TNF ([2]; autopresentation): TNF ^high

TSREQFLPSEGAACPPWHPS [MELOE-111-30]
mean % of cytokine producing CD4 T cells, in positive microcultures (IFN-γ, Th1) ([1]; Pt ≠ 1): (1.4% ± 0.7)
mean % of cytokine producing CD4 T cells, in positive microcultures (IL4, Th2) ([1]; Pt ≠ 1): (1%)
mean % of cytokine producing CD4 T cells, in positive microcultures (IFN-γ, Th1) ([1]; Pt ≠ 2): (1.6% ± 1.2)
mean % of cytokine producing CD4 T cells, in positive microcultures (IFN-γ, Th1) ([1]; Pt ≠ 3): (16.2% ± 33.2)
mean % of cytokine producing CD4 T cells, in positive microcultures (IFN-γ, Th1) ([1]; Pt ≠ 4): (0.9% ± 0.5)
mean % of cytokine producing CD4 T cells, in positive microcultures (IFN-γ, Th1) ([1]; Pt ≠ 5): (1.5% ± 1.1)
mean % of cytokine producing CD4 T cells, in positive microcultures (IFN-γ, Th1) ([1]; Pt ≠ 6): (1.5% ± 1.9)
mean % of cytokine producing CD4 T cells, in positive microcultures (IFN-γ, Th1) ([1]; Pt ≠ 8): (2.9% ± 0.04 )
mean % of cytokine producing CD4 T cells, in positive microcultures (IL4, Th2) ([1]; Pt ≠ 9): (0.6% ± 0.09)
Th1 responses, share of tested microcultures [1]: 10.8%
melanoma patients with CD4 specific responses (mainly Th1, IFN-g production) [1]: 7/9
melanoma patients with Th2 responses [1]: 2/9
Cytokine profile: GM-CSF [3]: GM-CSF ^high
Cytokine profile: IFN [3]: IFN ^high
Cytokine profile: IL2 [3]: IL2 ^high
Cytokine profile: IL4 [3]: IL4 ^low
Cytokine profile: IL5 [3]: IL5 ^neg
Cytokine profile: IL10 [3]: IL10 ^neg
Cytokine profile: IL13 [3]: IL13 ^neg
Cytokine profile: TNF ([3]; autopresentation): TNF ^high
Cytokine profile: GM-CSF [4]: GM-CSF ^high
Cytokine profile: IFN [4]: IFN ^high
Cytokine profile: IL2 [4]: IL2 ^low
Cytokine profile: IL4 [4]: IL4 ^high
Cytokine profile: IL5 [4]: IL5 ^neg
Cytokine profile: IL10 [4]: IL10 ^neg
Cytokine profile: IL13 [4]: IL13 ^high
Cytokine profile: TNF ([4]; autopresentation): TNF ^high
